Laboratory results reported in the NIST ThermoML archive (doi:10.1021/je900131q).
Values joined by “and” are separate entries in the source; they are usually repeats but may differ in a detail not shown here. Equal entries are not always repeated.

Conditions: Fluid (supercritical or subcritical phases); for mass density: Buoyancy - hydrostatic balance with magnetic suspension - one sinker; for viscosity: Vibrating wire viscometer

N#N [nitrogen]
Conditions | mass density | viscosity [mPa·s]
293.11 K, 1737.3 kPa | 20.04 kg/m3 | 0.01776
293.11 K, 8684.1 kPa | 100.062 kg/m3 | 0.01931
293.11 K, 12288 kPa | 140.108 kg/m3 | 0.02039
293.12 K, 3456.5 kPa | 39.956 kg/m3 | 0.01807
293.12 K, 5188.4 kPa | 60.007 kg/m3 | 0.01843
293.12 K, 6932.1 kPa | 80.084 kg/m3 | 0.01884
293.12 K, 16079 kPa | 180.081 kg/m3 | 0.02168
293.12 K, 22359 kPa | 240.226 kg/m3 | 0.02399
293.12 K, 24666 kPa | 260.273 kg/m3 | 0.0249
293.13 K, 14176 kPa | 160.309 kg/m3 | 0.02101
293.14 K, 1741.7 kPa | 20.088 kg/m3 | 0.01775
293.14 K, 5190.1 kPa | 60.028 kg/m3 | 0.01841
293.14 K, 5191.3 kPa | 60.033 kg/m3 | 0.0184
293.14 K, 6919.8 kPa | 79.938 kg/m3 | 0.01881
293.14 K, 6919.9 kPa | 79.937 kg/m3 | 0.01881
293.14 K, 18079 kPa | 200.088 kg/m3 | 0.02238
293.15 K, 168.17 kPa | 1.9327 kg/m3 | 0.01754
293.15 K, 257.03 kPa | 2.9592 kg/m3 | 0.01755
293.15 K, 257.04 kPa | 2.9569 kg/m3 | 0.01755
293.15 K, 260.16 kPa | 2.9879 kg/m3 | 0.01754
293.15 K, 348.59 kPa | 4.0063 kg/m3 | 0.01757
293.15 K, 348.6 kPa | 4.0116 kg/m3 | 0.01756
293.15 K, 434.63 kPa | 4.9978 kg/m3 | 0.01756
293.15 K, 438.44 kPa | 5.0442 kg/m3 | 0.01758
293.15 K, 438.45 kPa | 5.045 kg/m3 | 0.01758
293.15 K, 865.03 kPa | 9.9564 kg/m3 | 0.01763
293.15 K, 865.04 kPa | 9.9572 kg/m3 | 0.01763
293.15 K, 867.69 kPa | 9.9877 kg/m3 | 0.01763
293.15 K, 3452.3 kPa | 39.892 kg/m3 | 0.01805
293.15 K, 8683.4 kPa | 100.04 kg/m3 | 0.01928
293.16 K, 87.06 kPa | 1.0006 kg/m3 | 0.0175
293.16 K, 174.08 kPa | 2.0011 kg/m3 | 0.01753
293.16 K, 6917.3 kPa | 79.905 kg/m3 | 0.01881
293.16 K, 8683.4 kPa | 100.03 kg/m3 | 0.01928
293.16 K, 10467 kPa | 120.042 kg/m3 | 0.01983
293.16 K, 10724 kPa | 122.91 kg/m3 and 122.9 kg/m3 | 0.01987
293.16 K, 20166 kPa | 220.109 kg/m3 | 0.02316
293.16 K, 27067 kPa | 279.903 kg/m3 | 0.02585
293.16 K, 30306 kPa | 304.692 kg/m3 | 0.02713
293.17 K, 347.38 kPa | 3.995 kg/m3 | 0.01756
293.17 K, 434.86 kPa | 5.0007 kg/m3 | 0.01757
293.17 K, 30306 kPa | 304.691 kg/m3 | 0.02714
293.18 K, 69.62 kPa | 0.79943 kg/m3 | 0.01749
423.09 K, 1261.4 kPa | 9.9995 kg/m3 | 0.02309
423.09 K, 2533.5 kPa | 20.001 kg/m3 | 0.0232
423.09 K, 7760.6 kPa | 60.009 kg/m3 | 0.02382
423.09 K, 19172 kPa | 140.043 kg/m3 | 0.02569
423.09 K, 25569 kPa | 180.07 kg/m3 | 0.02695
423.1 K, 377.31 kPa | 2.9994 kg/m3 | 0.02301
423.1 K, 629.65 kPa | 5.0007 kg/m3 | 0.02304
423.1 K, 5117.5 kPa | 40.01 kg/m3 | 0.02347
423.1 K, 22320 kPa | 160.186 kg/m3 | 0.02629
423.11 K, 100.56 kPa | 0.79993 kg/m3 | 0.02294
423.11 K, 125.69 kPa | 0.99956 kg/m3 | 0.02295
423.11 K, 251.45 kPa | 1.9998 kg/m3 | 0.02299
423.11 K, 10470 kPa | 79.969 kg/m3 | 0.0242
423.11 K, 13263 kPa | 99.939 kg/m3 | 0.02464
423.12 K, 503.26 kPa | 3.9997 kg/m3 | 0.02303
423.12 K, 16171 kPa | 120.044 kg/m3 | 0.02513
423.15 K, 30228 kPa | 206.995 kg/m3 | 0.02791
423.15 K, 30257 kPa | 207.176 kg/m3 | 0.02792
423.16 K, 30225 kPa | 206.975 kg/m3 | 0.02791

[He] [helium]
Conditions | mass density | viscosity [mPa·s]
293.13 K, 27527 kPa | 39.805 kg/m3 | 0.01975
293.14 K, 2446 kPa | 3.967 kg/m3 | 0.01958
293.14 K, 16374 kPa | 24.912 kg/m3 | 0.01958
293.14 K, 20744 kPa | 30.969 kg/m3 | 0.01962
293.14 K, 27529 kPa | 39.804 kg/m3 | 0.01975
293.15 K, 122.25 kPa | 0.19885 kg/m3 | 0.01954
293.15 K, 245.73 kPa | 0.40368 kg/m3 | 0.01958
293.15 K, 366.51 kPa | 0.59858 kg/m3 | 0.01959
293.15 K, 366.53 kPa | 0.60087 kg/m3 | 0.01959
293.15 K, 482.99 kPa | 0.79042 kg/m3 | 0.01959
293.15 K, 483 kPa | 0.79119 kg/m3 | 0.01959
293.15 K, 1219.9 kPa | 1.9866 kg/m3 | 0.01959
293.15 K, 1827.5 kPa | 2.9695 kg/m3 | 0.01958
293.15 K, 1827.6 kPa | 2.9711 kg/m3 | 0.01958
293.15 K, 2466.2 kPa | 3.9699 kg/m3 | 0.01958
293.15 K, 3714.2 kPa | 5.9819 kg/m3 | 0.01957
293.15 K, 3714.3 kPa | 5.9857 kg/m3 | 0.01956
293.15 K, 4978.6 kPa | 7.974 kg/m3 | 0.01956
293.15 K, 4978.7 kPa | 7.9747 kg/m3 | 0.01956
293.15 K, 4995.9 kPa | 7.9672 kg/m3 | 0.01957
293.15 K, 7564.1 kPa | 11.972 kg/m3 | 0.01955
293.15 K, 7564.2 kPa | 11.972 kg/m3 | 0.01955
293.15 K, 8842.9 kPa | 13.917 kg/m3 and 13.915 kg/m3 | 0.01955
293.15 K, 10227 kPa | 15.922 kg/m3 | 0.01957
293.15 K, 12231 kPa | 18.954 kg/m3 | 0.01956
293.15 K, 14295 kPa | 21.949 kg/m3 | 0.01957
293.15 K, 14296 kPa | 21.953 kg/m3 | 0.01957
293.15 K, 14320 kPa | 21.908 kg/m3 | 0.01959
293.15 K, 16374 kPa | 24.913 kg/m3 | 0.01958
293.15 K, 18460 kPa | 27.833 kg/m3 and 27.831 kg/m3 | 0.0196
293.15 K, 20744 kPa | 30.973 kg/m3 | 0.01963
293.15 K, 22880 kPa | 33.856 kg/m3 | 0.01966
293.15 K, 22883 kPa | 33.861 kg/m3 | 0.01966
293.15 K, 22973 kPa | 33.811 kg/m3 | 0.01968
293.15 K, 25224 kPa | 36.797 kg/m3 | 0.01972
293.15 K, 25329 kPa | 37.097 kg/m3 and 37.099 kg/m3 | 0.01969
293.16 K, 245.73 kPa | 0.40445 kg/m3 | 0.01958
293.16 K, 613.17 kPa | 1.0037 kg/m3 | 0.01959
293.16 K, 613.18 kPa | 1.0029 kg/m3 | 0.01959
293.16 K, 2447.5 kPa | 3.9693 kg/m3 and 3.9647 kg/m3 | 0.01958
293.16 K, 3742.3 kPa | 5.9974 kg/m3 | 0.01958
293.16 K, 4996.2 kPa | 7.965 kg/m3 | 0.01957
293.16 K, 6263.9 kPa | 9.9737 kg/m3 and 9.9745 kg/m3 | 0.01956
293.16 K, 6273.2 kPa | 9.9551 kg/m3 | 0.01957
293.16 K, 7587 kPa | 11.953 kg/m3 | 0.01957
293.16 K, 14320 kPa | 21.907 kg/m3 | 0.01959
293.16 K, 22974 kPa | 33.812 kg/m3 | 0.01968
293.16 K, 25225 kPa | 36.795 kg/m3 | 0.01971
293.16 K, 30149 kPa | 43.152 kg/m3 | 0.0198
293.16 K, 30150 kPa | 43.152 kg/m3 | 0.0198
293.17 K, 3742.6 kPa | 5.9981 kg/m3 | 0.01958
293.17 K, 6273.4 kPa | 9.9566 kg/m3 | 0.01957
293.17 K, 6273.7 kPa | 9.9551 kg/m3 | 0.01957
293.17 K, 7587.3 kPa | 11.953 kg/m3 | 0.01957
293.17 K, 8869.8 kPa | 13.892 kg/m3 | 0.01957
293.17 K, 10198 kPa | 15.951 kg/m3 and 15.945 kg/m3 | 0.01955
293.17 K, 12237 kPa | 18.892 kg/m3 | 0.01958
293.17 K, 18562 kPa | 27.894 kg/m3 | 0.01962
293.18 K, 2466.6 kPa | 3.9663 kg/m3 | 0.01959
293.18 K, 8870.2 kPa | 13.894 kg/m3 | 0.01957
293.18 K, 10228 kPa | 15.928 kg/m3 | 0.01958
293.18 K, 12237 kPa | 18.892 kg/m3 | 0.01958
293.18 K, 16436 kPa | 24.919 kg/m3 | 0.01961
293.18 K, 18563 kPa | 27.897 kg/m3 | 0.01964
293.18 K, 22975 kPa | 33.81 kg/m3 | 0.01968
293.19 K, 16436 kPa | 24.919 kg/m3 | 0.01961
293.19 K, 18564 kPa | 27.893 kg/m3 | 0.01963
293.2 K, 20756 kPa | 30.909 kg/m3 | 0.01965
293.2 K, 20757 kPa | 30.907 kg/m3 | 0.01966
293.21 K, 30174 kPa | 43.24 kg/m3 | 0.0198
293.21 K, 30175 kPa | 43.241 kg/m3 and 43.243 kg/m3 | 0.01979
293.22 K, 30175 kPa | 43.244 kg/m3 | 0.0198
293.24 K, 1220.6 kPa | 1.9766 kg/m3 | 0.01959
293.25 K, 1220.7 kPa | 1.978 kg/m3 | 0.0196
293.25 K, 1827.1 kPa | 2.949 kg/m3 | 0.01959
293.26 K, 613.3 kPa | 0.99551 kg/m3 | 0.0196
293.26 K, 1827.3 kPa | 2.9512 kg/m3 | 0.01959
293.27 K, 489.97 kPa | 0.79365 kg/m3 | 0.0196
293.27 K, 490.02 kPa | 0.79727 kg/m3 | 0.0196
293.27 K, 613.45 kPa | 0.99623 kg/m3 | 0.0196
293.28 K, 121.3 kPa | 0.19968 kg/m3 | 0.01954
293.28 K, 121.33 kPa | 0.19895 kg/m3 | 0.01955
293.28 K, 244.14 kPa | 0.39719 kg/m3 | 0.01958
293.28 K, 244.19 kPa | 0.39791 kg/m3 | 0.01958
293.28 K, 366.66 kPa | 0.59687 kg/m3 | 0.01959
293.28 K, 366.7 kPa | 0.59542 kg/m3 | 0.01959
